Structures are written as SMILES.

The subject of the first test is T1, purified human Hsp90.
T1 construct: purified human Hsp90 (Stressgen, SPP-770)
Briefly: Hsp90 binding assay: displacement of BODIPY-labeled geldanamycin measured by fluorescence polarization. Conditions: 5 μM compound; BODIPY-GM 10 nM, Hsp90 30 nM, overnight at room temperature. As to the method: Binding of the Example Compounds to purified Hsp90 was assayed by measuring the displacement of BODIPY-labeled geldanamycin (BODIPY-GM) from purified human Hsp90, using a fluorescence polarization assay adapted from Kim et al. (J. Biomolec. Screening, 9(5):375-381 (2004)). Compound dilutions (in 100% DMSO) were added to black-bottom 96-well plates (Greiner Bio-One, Monroe, N.C.) in 2% DMSO final, and equal volumes of BODIPY-GM (10 nM final) and purified human Hsp90 (Stressgen, SPP-770; 30 nM final) (Assay Designs, Ann Arbor, Mich.) in assay buffer (20 mM HEPES-KOH pH 7.3, 50 mM KCl, 5 mM MgCl2, 20 mM Na2MoO4, 0.01% NP-40, 0.1 mg/mL bovine gamma globulin [P2045; Invitrogen, Carlsbad, Calif.], 2 mM DTT) were added sequentially to yield a final volume of 50 microliters. Plates were incubated overnight at room temperature. Parallel and perpendicular fluorescence measurements were read (Analyst AD plate reader; LJL BioSystems, Middletown, Conn.) with excitation/emission wavelengths of 485/530 nm. Background fluorescence (buffer only) was subtracted, and fluorescence polarization (FP) values, expressed in mP units, were calculated from parallel and perpendicular fluorescence readings as follows:
FP=(parallel−perpendicular)/(parallel+perpendicular)*1000.
Percent inhibition was calculated by normalizing the FP values to those obtained in parallel reactions containing DMSO and subtracting these normalized values from 100%. Intrinsic compound fluorescence was independently monitored, and FP data points confounded by compound fluorescence were excluded from the analysis.
(Polarisation of emitted light reports the rotation of a fluorescent probe.)
As for `N#Cc1cc2c(cc1Sc1nc3c(N)ncn(CCC4CCN(C=O)CC4)c-3n1)CCC2=O` [compound 2, 6-({6-amino-3-[2-(1-formylpiperidin-4-yl)ethyl]-3H-purin-8-yl}thio)-3-oxoindane-5-carbonitrile], the “GM displacement from purified Hsp90 measured by FP Inhibition by 5 μM compd. (%)” value was 24.0%. The same measure, in the same setting: the value for `CS(=O)(=O)N1CCCC(CCn2cnc(N)c3nc(Sc4cc5c(cc4Br)OCCO5)nc2-3)C1` (stereo not drawn) [compound 13, 8-[(7-Bromo-2,3-dihydro-1,4-benzodioxin-6-yl)thio]-3-{2-[1-(methylsulfonyl)piperidin-3-yl]ethyl}-3H-purin-6-amine] was 38.0%; that for `CCCN1CCCCC1CCn1cnc(N)c2nc(Sc3cc4c(cc3Br)OCCO4)nc1-2` (stereo not drawn) [compound 16, 8-[(7-Bromo-2,3-dihydro-1,4-benzodioxin-6-yl)thio]-3-[2-(1-propylpiperidin-2-yl)ethyl]-3H-purin-6-amine] was 73.0%. For the molecule `CS(=O)(=O)N1CCC(CCn2cnc(N)c3nc(Sc4cc5c(cc4Br)OCCO5)nc2-3)CC1` [compound 17, 8-[(7-Bromo-2,3-dihydro-1,4-benzodioxin-6-yl)thio]-3-{2-[1-(methylsulfonyl)piperidin-4-yl]ethyl}-3H-purin-6-amine], the “GM displacement from purified Hsp90 measured by FP Inhibition by 5 μM compd. (%)” value is reported as 33.0%. As for `COc1ccc(Br)c(Sc2nc3c(N)ncn(CCC4CCN(C(C)=O)CC4)c-3n2)c1` [compound 19, 3-[2-(1-Acetylpiperidin-4-yl)ethyl]-8-[(2-bromo-5-methoxyphenyl)thio]-3H-purin-6-amine], the “GM displacement from purified Hsp90 measured by FP Inhibition by 5 μM compd. (%)” value is given as 10.0%.

As for `Cn1nnnc1N1CCC(CCn2cnc(N)c3nc(Sc4cc5c(cc4Br)OCCO5)nc2-3)CC1` [compound 22, 8-[(7-Bromo-2,3-dihydro-1,4-benzodioxin-6-yl)thio]-3-{2-[1-(1-methyl-1H-tetrazol-5-yl)piperidin-4-yl]ethyl}-3H-purin-6-amine], the “GM displacement from purified Hsp90 measured by FP Inhibition by 5 μM compd. (%)” value worked out at 46.0%. The same measure, in the same setting: the same measure for `CC(C)C(=O)N1CCC(CCn2cnc(N)c3nc(Sc4cc5c(cc4Br)OCCO5)nc2-3)CC1` [compound 24, 8-[(7-Bromo-2,3-dihydro-1,4-benzodioxin-6-yl)thio]-342-(1-isobutyrylpiperidin-4-ypethyl]-3H-purin-6-amine]: 28.0%.

Staying with this test, now noted: BODIPY-GM 10 nM, Hsp90 30 nM, overnight at room temperature; read-out: GM displacement from purified Hsp90 measured by FP IC 50.
Regarding `C[C@H](O)C(=O)N1CCC(CCn2c(Sc3cc4c(cc3Cl)OCO4)nc3c(N)ncnc32)CC1` [Example Compound 203, (2S)-1-[4-(2-{6-Amino-8-[(6-chloro-1,3-benzodioxol-5-yl)thio]-9H-purin-9-yl}ethyl)piperidin-1-yl]-1-oxopropan-2-ol], the IC50 was 395 nM. Still for that read-out and setting: the same measure for `C[C@@H](O)C(=O)N1CCC(CCn2c(Sc3cc4c(cc3Cl)OCO4)nc3c(N)ncnc32)CC1` [Example Compound 204, (2R)-1-[4-(2-{6-Amino-8-[(6-chloro-1,3-benzodioxol-5-yl)thio]-9H-purin-9-yl}ethyl)piperidin-1-yl]-1-oxopropan-2-ol]: 400 nM; for `Nc1ncnc2c1nc(Sc1cc3c(cc1Cl)OCO3)n2CCC1CCN(C(=O)CO)CC1` [Example Compound 205, 2-[4-(2-{6-Amino-8-[(6-chloro-1,3-benzodioxol-5-yl)thio]-9H-purin-9-yl}ethyl)piperidin-1-yl]-2-oxoethanol]: 497 nM; for `C[C@H](O)C(=O)N1CCCC[C@@H]1CCn1c(Sc2cc3c(cc2Br)OCO3)nc2c(N)ncnc21` [Example Compound 206, (2S)-1-[(2R)-2-(2-{6-Amino-8-[(6-bromo-1,3-benzodioxol-5-yl)thio]-9H-purin-9-yl}ethyl)piperidin-1-yl]-1-oxopropan-2-ol]: more than 5000 nM. Still for that read-out and setting: the value for `C[C@H](O)C(=O)N1CCCC[C@H]1CCn1c(Sc2cc3c(cc2Br)OCO3)nc2c(N)ncnc21` [Example Compound 207, (2S)-1-[(2S)-2-(2-{6-Amino-8-[(6-bromo-1,3-benzodioxol-5-yl)thio]-9H-purin-9-yl}ethyl)piperidin-1-yl]-1-oxopropan-2-ol] was more than 5000 nM. Same read-out and setting: the value for `COc1cc(Br)c(Sc2nc3c(N)ncnc3n2CCC2CCN(C(=O)[C@H](C)O)CC2)cc1OC` [Example Compound 208, (2S)-1-[4-(2-{6-Amino-8-[(2-bromo-4,5-dimethoxyphenyl)thio]-9H-purin-9-yl}ethyl)piperidin-1-yl]-1-oxopropan-2-ol] was more than 5000 nM; that for `C[C@H](O)C(=O)N1CCC(CCn2c(Sc3cc(O)c(O)cc3Br)nc3c(N)ncnc32)CC1` [Example Compound 209, 4-{[6-Amino-9-(2-{1-[(2S)-2-hydroxypropanoyl]piperidin-4-yl}ethyl)-9H-purin-8-yl]thio}-5-bromobenzene-1,2-diol] was 2100 nM; that for `Nc1ncnc2c1nc(Sc1cc3c(cc1Br)OCO3)n2C1CCNCC1` [Example Compound 211, 8-[(6-Bromo-1,3-benzodioxol-5-yl)thio]-9-piperidin-4-yl-9H-purin-6-amine] was 950 nM. Regarding `C[C@H](O)C(=O)N1CCC(n2c(Sc3cc4c(cc3Br)OCO4)nc3c(N)ncnc32)CC1` [Example Compound 212, (2S)-1-(4-{6-amino-8-[(6-bromo-1,3-benzodioxol-5-yl)thio]-9H-purin-9-yl}piperidin-1-yl)-1-oxopropan-2-ol], the IC50 was found to be 350 nM. As to `Nc1ncnc2c1nc(Sc1cc3c(cc1Br)OCO3)n2C1CCN(C=O)CC1` [Example Compound 213, 4-{6-Amino-8-[(6-bromo-1,3-benzodioxol-5-yl)thio]-9H-purin-9-yl}piperidine-1-carbaldehyde], the IC50 was 580 nM. As for `N#Cc1cc2c(cc1Sc1nc3c(N)ncnc3n1CCC1CCN(C=O)CC1)CCC2=O` [compound 1, 6-({6-Amino-9-[2-(1-formylpiperidin-4-yl)ethyl]-9H-purin-8-yl}thio)-3-oxoindane-5-carbonitrile], the IC50 turned out to be 230 nM.

With `COCCOCC(=O)N1CCC(CCn2c(Sc3cc4c(cc3Br)OCCO4)nc3c(N)ncnc32)CC1` [compound 3, 8-[(7-Bromo-2,3-dihydro-1,4-benzodioxin-6-yl)thio]-9-(2-{1-[(2-methoxyethoxy)acetyl]piperidin-4-yl}ethyl)-9H-purin-6-amine], the IC50 was 80 nM.

Regarding `CO[C@@H](C)C(=O)N1CCC(CCn2c(Sc3cc4c(cc3Br)OCCO4)nc3c(N)ncnc32)CC1` [compound 4, 8-[(7-Bromo-2,3-dihydro-1,4-benzodioxin-6-yl)thio]-9-(2-{1-[(2S)-2-methoxypropanoyl]piperidin-4-yl}ethyl)-9H-purin-6-amine], the IC50 was 80 nM.

`COCCC(=O)N1CCC(CCn2c(Sc3cc4c(cc3Br)OCCO4)nc3c(N)ncnc32)CC1` [compound 5, 8-[(7-Bromo-2,3-dihydro-1,4-benzodioxin-6-yl)thio]-9-{2-[1-(3-methoxypropanoyl)piperidin-4-yl]ethyl}-9H-purin-6-amine]: the IC50 stood at 63 nM. The same measure, in the same setting: the same measure for `COCC(=O)N1CCC(CCn2c(Sc3cc4c(cc3Br)OCCO4)nc3c(N)ncnc32)CC1` [compound 6, 8-[(7-Bromo-2,3-dihydro-1,4-benzodioxin-6-yl)thio]-9-{2-[1-(methoxyacetyl)piperidin-4-yl]ethyl}-9H-purin-6-amine]: 70 nM. `CO[C@H](C)C(=O)N1CCC(CCn2c(Sc3cc4c(cc3Br)OCCO4)nc3c(N)ncnc32)CC1` [compound 7, 8-[(7-Bromo-2,3-dihydro-1,4-benzodioxin-6-yl)thio]-9-(2-{1-[(2R)-2-methoxypropanoyl]piperidin-4-yl}ethyl)-9H-purin-6-amine]: the IC50 was 95 nM. Still for that read-out and setting: the same measure for `Nc1ncnc2c1nc(Sc1cc3c(cc1Br)OCCO3)n2CCC1CCN(C(=O)C2CC2(F)F)CC1` (stereo not drawn) [compound 8, 8-[(7-Bromo-2,3-dihydro-1,4-benzodioxin-6-yl)thio]-9-(2-{1-[(2,2-difluorocyclopropyl)carbonyl]piperidin-4-yl}ethyl)-9H-purin-6-amine]: 90 nM; for `CS(=O)(=O)N1CCCCC1CCn1c(Sc2cc3c(cc2Br)OCCO3)nc2c(N)ncnc21` (stereo not drawn) [compound 10, 8-[(7-Bromo-2,3-dihydro-1,4-benzodioxin-6-yl)thio]-9-{2-[1-(methylsulfonyl)piperidin-2-yl]ethyl}-9H-purin-6-amine]: 160 nM. Still for that read-out and setting: the same measure for `CS(=O)(=O)N1CCCC(CCn2c(Sc3cc4c(cc3Br)OCCO4)nc3c(N)ncnc32)C1` (stereo not drawn) [compound 12, 8-[(7-Bromo-2,3-dihydro-1,4-benzodioxin-6-yl)thio]-9-{2-[1-(methylsulfonyl)piperidin-3-yl]ethyl}-9H-purin-6-amine]: 65 nM; for `CC(C)C(=O)N1CCC(CCn2c(Sc3cc4c(cc3Br)OCCO4)nc3c(N)ncnc32)CC1` [compound 23, 8-[(7-Bromo-2,3-dihydro-1,4-benzodioxin-6-yl)thio]-9-[2-(1-isobutyrylpiperidin-4-yl)ethyl]-9H-purin-6-amine]: 195 nM.

Values taken from patent publication US20100292255A1, “Therapeutic Compounds and Their Use in Treating Diseases and Disorders” (Myriad Pharmaceuticals, Inc., priority 2007, published 2010).
